The text below walks through data of patent US20130274246A1, “Therapeutic Treatment for Metabolic Syndrome, Type 2 Diabetes, Obesity, or Prediabetes” (priority 2010, published 2013).

Holding throughout (assay type): in vivo
The subject of assay [1] is male mice fed a high fat diet. The assay can be described thus: GBR versus bupropion in high fat diet mice (Example 11). How it is done:
The effect of increasing central dopamine neuronal activity versus increasing central dopamine plus norepinephirne neuronal activity on body fat, blood glucose, plasma insulin, and insulin sensitivity was studied in male mice fed a high fat diet from 4 weeks of age until 24 weeks of age. These mice were maintained on this high fat diet while treated with either GBR (20 mg/kg) (a selective dopamine reuptake inhibitor) or bupropion (20 mg/kg) (a dopamine and norepinpehrine reuptake inhibitor) at doses that approximate their 50% maximal effective dose for these functions in vivo in rodents.

In assay [2] the test system is female mice fed a high fat diet for 20 weeks. Description: GBR 12909 and FA, alone and combined, 14 days in high fat diet mice (Example 9). To be noted: GBR 12909 10 mg/kg, FA 15 mg/kg, FIG. 11. The protocol: Female mice at 4 weeks of age were fed a high fat diet for 20 weeks to induce diabetes and insulin resistance and continued on such diet while treated for 14 days with either GBR 12909 (10 mg/kg), FA (15 mg/kg), GBR 12909 (10 mg/kg) plus FA (15 mg/kg), or vehicle and sacrified after 14 days of treatment for the analyses of body fat, blood glucose, plasma insulin, and plasma nitric oxide levels. The composite of body fat store level, blood glucose and plasma insulin was reduced the greatest in the GBR/FA group and by a magnitude more than additive of the individual GBR and FA groups combined. Only the GBR/FA group normalized plasma insulin levels. […] This effect was not observed with either GBR or FA treatments alone. Also, there was no desensitization to this dopamine enhancing treatment on this body weight reduction effect as is observed with dopamine D2 receptor agonists (FIG. 15).

Assay [3] concerns high fat fed, hypertensive SHR rats. The assay can be described thus: Quinelorane and fusaric acid, alone and combined, in high fat fed hypertensive SHR rats (Example 5). To be noted: SHR rats on high fat diet, Q 0.075 mg/kg, FA 12.5 mg/kg. How it is done: Male SHR rats were maintained on 14 hour daily photoperiods and fed a high fat diet (60% of energy from fat; 5.24 kcal/gram weight) for 3 weeks and then divided into different groups and treated with either quinelorane (Q; a dopamine D2/D3 mixed receptor agonist) (0.075 mg/kg), fusaric acid (FA; a dopamine beta hydroxylase inhibitor) (12.5 mg/kg), quinelorane (0.075 mg/kg) plus FA (Q/FA) (12.5 mg/kg), or vehicle at 13 hours after light onset for 17 days. The doses of Q and FA were set at less than half maximal to effect central dopamine receptor binding functions and dopamine beta hydroxylase activity, respectively. […] Blood pressure measurements were taken at 14 days of treatment and animals were sacrificed at 18 days of treatment for analyses of body fat and humoral factors and metabolites. […] Respecting blood glucose, although both Q and FA reduced glucose level relative to vehicle, only the Q/FA regimen normalized blood glucose in these animals relative to vehicle (FIG. 6).

Assay [4] deals with obese, diabetic female ob/ob mice. The assay can be described thus: Fusaric acid and SKF 38393, alone and combined, 14 days in ob/ob mice (Example 4). To be noted: fusaric acid 15 mg/kg, SKF 38393 10 mg/kg, once daily 14 days, day 15, controls 380+/−30. The protocol: Fusaric acid is a dopamine beta hydroxylase inhibitor that reduces noradrenaline synthesis in noradrenergic neurons. It is not present in dopaminergic neurons and thus exerts no such effect there. SKF38393 is a post-synaptic dopamine D1 receptor agonist with no marked influence on noradrenergic neurons. A study was conducted to determine the interactive effects of fusaric acid plus SKF 38393 on body fat store levels, and blood glucose and plasma triglyceride levels in ob/ob mice. The ob/ob mouse is hyperphagic, obese, insulin resistant, diabeteic and dyslipidemic due to the absence of functional leptin as a result of a mutation in this gene.
Obese, diabetic female ob/ob mice (body weight of approximately 33 g) maintained on 14 hour daily photoperiods, housed one per cage and allowed to feed ad libitum were randomized to once daily treatment with either fusaric acid (15 mg/kg; n=6-8), SKF 38393 (10 mg/kg; n=6-8), both fusaric acid (15 mg/kg) and SKF 38393 (10 mg/kg) (n=6-8), or vehicle (control group; n=6-8) for a 14 day period. On the fifteenth day of the study and approximately 24 hours after the final treatment animals were sacrificed and blood samples were obtained for the analyses of blood glucose, plasma free fatty acid and triglyceride levels. […]

With `Cl.Cl.Fc1ccc(C(OCCN2CCN(CCCc3ccccc3)CC2)c2ccc(F)cc2)cc1` [GBR 12909, 1-(2-[bis(4-Fluorophenyl)methoxy]ethyl)-4-(3-phenylpropyl)piperazine dihydrochloride], the reducing plasma insulin result in assay [1] (GBR 20 mg/kg versus bupropion 20 mg/kg, equal dose) is on record as “much more effective”. Besides, the body fat entry in assay [1] (GBR 20 mg/kg, compared to vehicle and bupropion 20 mg/kg, FIG. 17) is on record as “significantly reduced”. Besides, the blood glucose level result in assay [2] was “no significant effect”.
Take `CCCN1CCC[C@@H]2Cc3nc(N)ncc3C[C@H]21` [Q]: the “change from baseline body weight (weight loss)” value in assay [3] (at 13 hours after light onset for 17 days, FIGS. 1 and 2) is “regained weight loss to baseline values by treatment end”.
In the case of `Cl.Oc1cc2c(cc1O)C(c1ccccc1)CNCC2` (stereo not drawn) [SKF 38393, 1-phenyl-7,8-dihydroxy-2,3,4,5-tetrahydro-1H-3-benzazepine hydrochloride], the blood glucose in assay [4] was 290 ± 55 mg/dL.
`CCCCc1ccc(C(=O)O)nc1` [fusaric acid, 5-butyl-2-pyridinecarboxylic acid]: the “plasma C-reactive protein levels” value in assay [3] (17 days, relative to vehicle) is on record as “no significant effect”.
